Read-outs that look alike come from different tables or passages of the source.
How the values were obtained:
Assay type in all cases: cell-based
H661 (lung, large cell) = test: Antiproliferative activity, ATP method, H661; settings: Homo sapiens, NCI-H661
Method: (§1) The antiproliferative activity of compounds of this invention or their conjugates was assayed as follows. Human tumor cell lines were obtained from the American Type Culture Collection (ATCC), P.O. Box 1549, Manassas, Va. 20108, USA, and cultured according to instruction from the ATCC. Cells were seeded at 1.0×10^3 or 1.0×10^4 cells/well in 96-well plates for 3 h for ATP assays or ^3H thymidine assays, respectively. 1:3 serial dilutions of free (unconjugated) compounds or their conjugates were added to the wells. Plates were allowed to incubate for 24 to 72 h. The ^3H thymidine plates were pulsed with 1.0 μCi of ^3H-thymidine per well for the last 24 hours of the total incubation period, harvested, and read on a Top Count Scintillation Counter (Packard Instruments, Meriden, Conn.). ATP levels in the ATP plates were measured using the CELLTITER-GLO® Luminescent Cell Viability kit following the manufacturer's manual and read on a GLOMAX® 20/20 luminometer (both from Promega, Madison, Wis., USA). The EC50 values—the concentration at which an agent inhibits or reduces cell proliferation by 50%—were determined using PRISM™ software, version 4.0 (GraphPad Software, La Jolla, Calif., USA).
(§2) The assay method was the ATP method. The cancer cell lines tested against were A2780 (ovarian), A549 (lung), CCRF-CEM (acute lymphoblastic leukemia), COLO205 (colon), DU4475 (breast), H2087 (lung, non-small cell), H661 (lung, large cell), HCT116 (colon), LNCaP (prostate), LS174T (colon), MDA MB468 (breast), MDA MB231 (breast), and SET2 (leukemia). The antiproliferative effects are reported as IC50's, i.e., the concentration of toxin that produces a 50% inhibitory effect.

[1] = tested on: H2087 (lung, non-small cell); test: Antiproliferative activity, ATP method, H2087; settings: Homo sapiens, NCI-H2087
Method: as §1, §2

HL-60 leukemia cells = test: Antiproliferative activity, ATP assay, HL-60; settings: Homo sapiens
Method: as §1
FIG. 11a is a plot of the antiproliferative activity of compound (IIa) against HL-60 leukemia cells, as measured by the ATP assay using a 72 h incubation period, compared against three reference compounds: doxorubicin (adriamycin), uncialamycin, and Compound A, which is a DNA alkylating agent having the following structure: […]

HCT116 (colon) = test: Antiproliferative activity, ATP method, HCT116; settings: Homo sapiens, HCT-116
Method: as §1, §2

A2780 (ovarian) = test: Antiproliferative activity, ATP method, A2780; settings: Homo sapiens
Method: as §1, §2

H226 lung cancer cells = test: Antiproliferative activity, ATP assay, H226; settings: Homo sapiens
Method: as §1
FIG. 12b is a similar antiproliferative plot, but against H226 lung cancer cells. The ATP assay was used, with a 72 h incubation period.
FIG. 13c is another plot of the antiproliferative activity of conjugates 2H5-(IVf) and 6A4-(IVf) against H226 cells, but measured using the ATP assay, with a 72 h incubation period.

786-O renal cancer cells = test: Antiproliferative activity, ATP assay, 786-O; settings: Homo sapiens
Method: as §1
The ATP assay was used, with a 72 h incubation period.

[2] = tested on: doxorubicin-resistant ovarian cancer cell line (Adr); test: Antiproliferative activity, ATP assay, Adr; settings: Homo sapiens
Method: as §1
FIG. 11b is an analogous plot of antiproliferative activity against a doxorubicin-resistant ovarian cancer cell line (Adr), also using the ATP assay and a 72 h incubation period.

A549 (lung) = test: Antiproliferative activity, ATP method, A549; settings: Homo sapiens
Method: The antiproliferative activity of compounds of this invention or their conjugates was assayed as follows. […] Cells were seeded at 1.0×10^3 or 1.0×10^4 cells/well in 96-well plates for 3 h for ATP assays or ^3H thymidine assays, respectively. 1:3 serial dilutions of free (unconjugated) compounds or their conjugates were added to the wells. Plates were allowed to incubate for 24 to 72 h. The ^3H thymidine plates were pulsed with 1.0 μCi of ^3H-thymidine per well for the last 24 hours of the total incubation period, harvested, and read on a Top Count Scintillation Counter (Packard Instruments, Meriden, Conn.). […] The EC50 values—the concentration at which an agent inhibits or reduces cell proliferation by 50%—were determined using PRISM™ software, version 4.0 (GraphPad Software, La Jolla, Calif., USA).

SET2 (leukemia) = test: Antiproliferative activity, ATP method, SET2; settings: Homo sapiens, SET-2
Method: as §1, §2

DU4475 (breast) = test: Antiproliferative activity, ATP method, DU4475; settings: Homo sapiens, DU-4475
Method: as §1, §2

COLO205 (colon) = test: Antiproliferative activity, ATP method, COLO205; settings: Homo sapiens, COLO 205
Method: as §1, §2

[3] = tested on: CCRF-CEM (acute lymphoblastic leukemia); test: Antiproliferative activity, ATP method, CCRF-CEM; settings: Homo sapiens
Method: as §1, §2

MDA MB468 (breast) = test: Antiproliferative activity, ATP method, MDA MB468; settings: Homo sapiens, MDA-MB-468
Method: as §1, §2

LNCaP (prostate) = test: Antiproliferative activity, ATP method, LNCaP; settings: Homo sapiens
Method: as §1, §2

MDA MB231 (breast) = test: Antiproliferative activity, ATP method, MDA MB231; settings: Homo sapiens, MDA-MB-231
Method: as §1, §2

LS174T (colon) = test: Antiproliferative activity, ATP method, LS174T; settings: Homo sapiens
Method: as §1, §2

[4] = H661 cell line, ATP method, read-out: IC50
[5] = H2087 cell line, ATP method, read-out: IC50
[6] = HL-60 leukemia cells, ATP assay, 72 h incubation, read-out: EC50
[7] = HCT116 cell line, ATP method, read-out: IC50
[8] = A2790 cell line, ATP method, read-out: IC50
[9] = Adr cells (doxorubicin-resistant ovarian), ATP assay, 72 h incubation, read-out: EC50
[10] = A549 cell line, ATP method, read-out: IC50
[11] = SET2 cell line, ATP method, read-out: IC50
[12] = DU4475 cell line, ATP method, read-out: IC50
[13] = COLO205 cell line, ATP method, read-out: IC50
[14] = CCRF-CEM cell line, ATP method, read-out: IC50
[15] = MDA MB468 cell line, ATP method, read-out: IC50
[16] = LNCaP cell line, ATP method, read-out: IC50
[17] = MCD MB231 cell line, ATP method, read-out: IC50
[18] = LS174T cell line, ATP method, read-out: IC50

C[C@@H](O)[C@@]12O[C@]13c1cc(O)c4c(c1N[C@H]2C#C/C=C\C#C[C@H]3O)C(=O)c1ccc(N)cc1C4=O [Compound (IIa), 8-aminouncialamycin]
IC50 (H661 (lung, large cell)): 0.053 nM | IC50 [1]: 0.037 nM | EC50 (HL-60 leukemia cells; HL-60, 72 h): 0.00404 nM | IC50 (HCT116 (colon)): 0.007 nM | IC50 (A2780 (ovarian)): 0.003 nM | EC50 (H226 lung cancer cells; NCI-H226, 72 h): 1 nM | EC50 (786-O renal cancer cells; 786-0, 72 h): 0.116 nM | EC50 ([2]; 72 h): 0.0612 nM | IC50 (A549 (lung); A549): 0.076 nM | IC50 (SET2 (leukemia)): 0.008 nM | IC50 (DU4475 (breast)): 0.002 nM | IC50 (COLO205 (colon)): 0.01 nM | IC50 ([3]; CCRF-CEM): 0.014 nM | IC50 (MDA MB468 (breast)): 0.012 nM | IC50 (LNCaP (prostate); LNCaP): 0.001 nM | IC50 (MDA MB231 (breast)): 0.085 nM | IC50 (LS174T (colon); LS174T): 0.002 nM

Nc1ccc(C(=O)Nc2ccc3[nH]c(C(=O)N4C[C@@H](CCl)c5c4cc(O)c4ccccc54)cc3c2)cc1 [Compound A]
IC50 (H661 (lung, large cell); [4]): 0.02 nM | IC50 [1, 5]: 0.019 nM | EC50 (HL-60 leukemia cells; [6]): 0.00187 nM | IC50 (HCT116 (colon); [7]): 0.002 nM | IC50 (A2780 (ovarian); [8]): 0.004 nM | EC50 [2, 9]: 0.143 nM | IC50 (A549 (lung); [10]): 0.04 nM | IC50 (SET2 (leukemia); [11]): 0.002 nM | IC50 (DU4475 (breast); [12]): 0.001 nM | IC50 (COLO205 (colon); [13]): 0.019 nM | IC50 [3, 14]: 0.019 nM | IC50 (MDA MB468 (breast); [15]): 0.009 nM | IC50 (LNCaP (prostate); [16]): 0.01 nM | IC50 (MDA MB231 (breast); [17]): 0.068 nM | IC50 (LS174T (colon); [18]): 0.015 nM

C[C@@H](O)[C@@]12O[C@]13c1cc(O)c4c(c1N[C@H]2C#C/C=C\C#C[C@H]3O)C(=O)c1ccc(NC(=O)c2ccc(N)cc2)cc1C4=O [Compound (IId)]
EC50 (H226 lung cancer cells; NCI-H226, 72 h): 0.873 nM | EC50 (786-O renal cancer cells; 786-0, 72 h): 0.058 nM

C[C@@H](O)[C@@]12O[C@]13c1cc(O)c4c(c1N[C@H]2C#C/C=C\C#C[C@H]3O)C(=O)c1ccc(NCCN)cc1C4=O [Compound (IIc)]
EC50 (H226 lung cancer cells; NCI-H226, 72 h): 0.986 nM | EC50 (786-O renal cancer cells; 786-0, 72 h): 1.27 nM

C[C@@H](O)[C@@]12O[C@]13c1cc(O)c4c(c1N[C@H]2C#C/C=C\C#C[C@H]3O)C(=O)c1ccccc1C4=O [Uncialamycin, uncialamycin]
EC50 (HL-60 leukemia cells; HL-60, 72 h): 0.012 nM | EC50 ([2]; 72 h): 0.085 nM

COc1cccc2c1C(=O)c1c(O)c3c(c(O)c1C2=O)C[C@@](O)(C(=O)CO)C[C@@H]3O[C@H]1C[C@H](N)[C@H](O)[C@H](C)O1 [Doxorubicin, doxorubicin]
IC50 (H661 (lung, large cell); [4]): 26.6 nM | IC50 [1, 5]: 54.4 nM | EC50 (HL-60 leukemia cells; [6]): 5.98 nM | IC50 (HCT116 (colon); [7]): 23.4 nM | IC50 (A2780 (ovarian); [8]): 11.2 nM | EC50 (H226 lung cancer cells; NCI-H226, H226 cells, ATP assay, 72 h incubation, free compounds, read-out: EC50): 141 nM | EC50 (786-O renal cancer cells; 786-0, 786-O cells, ATP assay, 72 h incubation, read-out: EC50): 92.3 nM | EC50 [2, 9]: 3850 nM | IC50 (A549 (lung); [10]): 138 nM | IC50 (SET2 (leukemia); [11]): 67.6 nM | IC50 (DU4475 (breast); [12]): 2.9 nM | IC50 (COLO205 (colon); [13]): 19.7 nM | IC50 [3, 14]: 19.4 nM | IC50 (MDA MB468 (breast); [15]): 29 nM | IC50 (LNCaP (prostate); [16]): 5.5 nM | IC50 (MDA MB231 (breast); [17]): 90.5 nM | IC50 (LS174T (colon); [18]): 11.1 nM

CNc1ccc2c(c1)C(=O)c1c(O)cc3c(c1C2=O)N[C@H]1C#C/C=C\C#C[C@@H](O)[C@@]32O[C@@]12[C@@H](C)O [Compound (IIe), 8-methylaminouncialamycin]
EC50 (H226 lung cancer cells; NCI-H226, 72 h): 17.4 nM | EC50 (786-O renal cancer cells; 786-0, 72 h): 1.72 nM

Source: US9156850B2, “Enediyne compounds, conjugates thereof, and uses and methods therefor” (Bristol-Myers Squibb Company, priority 2012, dated 2015)
